Experimental findings from patent US11149035B2, “Chemical compounds as H—PGDS inhibitors” (GlaxoSmithKline Intellectual Property Development Limited, priority 2017, dated 2021) are described below.

This assay has as its target T1, haematopoietic prostaglandin D synthase (H-PGDS) (Homo sapiens, UniProt O60760).
T1 construct: Full length human H-PGDS cDNA (Invitrogen Ultimate ORF IOH13026) was amplified by PCR; 6-His (N); TEV protease cleavage site (N); made in house; host or cells: E. coli BL21 (DE3*)
The assay is described as follows: H-PGDS RapidFire high throughput mass spectrometry assay (conversion of PGH2 to PGD2). In kind it is biochemical. Conditions: 10 nM H-PGDS, PGH2 formed in situ by COX-2 from arachidonic acid; four parameter curve fit; read-out: Potency Range (mean pIC50) (converted). The protocol: The H-PGDS RapidFire™ mass spectrometric assay monitors conversion of prostaglandin H2 (PGH2) to prostaglandin D2 (PGD2) by haematopoietic prostaglandin D synthase (H-PGDS). In the assay format described here, the substrate (PGH2) is formed in situ by the action of cyclooxygenase-2 on arachidonic acid. This first step is set up to be fast, and generates a burst of PGH2 at ˜10 μM. The PGH2 is then further converted to PGD2 by the H-PGDS enzyme. […] Plates are then read on the RapidFire™ high throughput solid phase extraction system (Agilent) which incorporates a solid phase extraction step coupled to a triple quadrupole mass spectrometer (AB SCIEX). Relative levels of PGD2 and PGF2α, which acts as a surrogate for substrate, are measured and a percent conversion calculated. Inhibitors are characterised as compounds which lower the conversion of PGH2 to PGD2.
Full length human H-PGDS cDNA (Invitrogen Ultimate ORF IOH13026) was amplified by PCR with the addition of a 5′ 6-His tag and TEV protease cleavage site. The PCR product was digested with NdeI and XhoI and ligated into pET22b+ (Merck Novagen®). Expression was carried out in E. coli strain BL21 (DE3*) using auto-induction Overnight Express™ Instant TB medium (Merck Novagen®) supplemented with 1% glycerol. The culture was first grown at 37° C. and the temperature was reduced to 25° C. when OD600 reached 2.0. Cells were harvested by centrifugation after a further 18 hours. 10 g of E. coli cell pellet was suspended to a total volume of 80 mL in lysis buffer (20 mM Tris-Cl pH 7.5, 300 mM NaCl, 20 mM imidazole, 5 mM β-mercaptoethanol, 10% glycerol). 1 mg/mL protease inhibitors (Protease Inhibitor Cocktail Set III, Merck Calbiochem®) and 1 mg/mL lysozyme were added to the cell suspension. The suspension was then sonicated for 5 min (UltraSonic Processor VCX 750, Cole-Parmer Instrument Co.) with a micro probe (50% amplitude, 10 sec on/off) and then centrifuged at 100,000 g for 90 minutes (at 4° C.). The supernatant was loaded onto a Ni-NTA HiTrap column (5 mL, GE Healthcare, pre-equilibrated in lysis buffer). The column was washed with 10 column volumes of lysis buffer and eluted with lysis buffer containing 500 mM imidazole. The pooled protein peak fractions were concentrated using a 10 kDa centrifugal filter at 3500 g and 4° C. (Amicon Ultra-15 centrifugal filter unit with Ultracel-10 membrane from Millipore). Further purification of the concentrated protein was carried out using gel filtration chromatography on a HiLoad 26/600 Superdex 75 preparative grade column (GE Healthcare Life Sciences) using 50 mM Tris pH 7.5, 50 mM NaCl, 1 mM dithiothreitol, 1 mM MgCl2. Fractions containing the protein were pooled, concentrated as described above, and stored at −80° C.
The full length human COX-2 gene (accession number L15326) was amplified by PCR to generate an EcoRI—HindIII fragment containing an in-frame FLAG tag. This was subcloned into pFastBac 1 (Invitrogen). The COX-2 FLAG plasmid was recombined into the baculovirus genome according to the BAC-to-BAC protocol described by Invitrogen. Transfection into Spodoptera frugiperda (Sf9) insect cells was performed using Cellfectin (Invitrogen), according to the manufacturer's protocol. Super Sf9 cells were cultured in EX420 media (SAFC Biosciences) to a density of approximately 1.5×10^6 cells/mL within a wave bioreactor. Recombinant virus was added at a Multiplicity of Infection (MOI) of 5 and the culture was allowed to continue for 3 days. Cells were harvested using a continuous feed centrifuge run at 2500 g at a rate of approximately 2 L/min with cooling. The resultant cell slurry was re-centrifuged in pots (2500 g, 20 min, 4° C.) and the cell paste was stored at −80° C. 342 g of cell paste was re-suspended to a final volume of 1600 mL in a buffer of 20 mM Tris-Cl pH 7.4, 150 mM NaCl, 0.1 mM EDTA, 1.3% w/v n-octyl-[…] containing 20 Complete EDTA-free Protease Inhibitor Cocktail tablets (Roche Applied Science). […]

Each structure is given as a SMILES string. Bounds are passed on as bounds.

T1 sequence (O60760 whole entry): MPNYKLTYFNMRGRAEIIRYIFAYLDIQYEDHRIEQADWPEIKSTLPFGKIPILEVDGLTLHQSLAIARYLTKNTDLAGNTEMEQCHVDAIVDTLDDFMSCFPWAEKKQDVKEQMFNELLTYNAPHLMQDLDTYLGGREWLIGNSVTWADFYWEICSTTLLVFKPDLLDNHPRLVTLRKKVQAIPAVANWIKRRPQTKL

Turning to `CC(C)(O)[C@H]1CC[C@H](NC(=O)c2cnc3nc(N4CCC4)ncc3c2)CC1` [Example 79, 2-(Azetidin-1-yl)-N-((trans)-4-(2-hydroxypropan-2-yl)cyclohexyl)pyrido[2,3-d]pyrimidine-6-carboxamide], the IC50 was 10 to 79.4 nM.
On to `C[C@H]1CCN1c1nc2ncc(C(=O)N[C@H]3C[C@](O)(C(F)(F)F)C3)cc2cc1Cl` [Example 66, 6-Chloro-N-((1s,3R)-3-hydroxy-3-(trifluoromethyl)cyclobutyl)-7-((S)-2-methylazetidin-1-yl)-1,8-naphthyridine-3-carboxamide], for which the IC50 was less than 10 nM.
On to `CC(C)(O)[C@H]1CC[C@H](NC(=O)c2cnc3nc(N4CCC4)ccc3c2)CC1` [Example 5, 7-(Azetidin-1-yl)-N-(trans-4-(2-hydroxypropan-2-yl)cyclohexyl)-1,8-naphthyridine-3-carboxamide], for which the IC50 was less than 10 nM.
With `O=C(N[C@H]1C[C@H](N[C@H](CO)C(F)(F)F)C1)c1cnc2cc(C3CC3)ncc2c1` [Example 43, 7-Cyclopropyl-N-(trans-3-(((R)-1,1,1-trifluoro-3-hydroxypropan-2-yl)amino)cyclobutyl)-1,6-naphthyridine-3-carboxamide], the IC50 was 100 to 1000 nM.
The same measure for `O=C(N[C@H]1C[C@@H](N[C@H](CO)C(F)(F)F)C1)c1cnc2cc(C3CC3)ncc2c1` [Example 42, 7-Cyclopropyl-N-(cis-3-(((R)-1,1,1-trifluoro-3-hydroxypropan-2-yl)amino)cyclobutyl)-1,6-naphthyridine-3-carboxamide]: 100 to 1000 nM; for `CC(C)(O)[C@H]1CC[C@H](NC(=O)c2cnc3nc(C4CCC4)ccc3c2)CC1` [Example 72, 7-Cyclobutyl-N-(trans-4-(2-hydroxypropan-2-yl)cyclohexyl)-1,8-naphthyridine-3-carboxamide]: 10 to 79.4 nM.
For the molecule `CSc1ncc2cc(C(=O)N[C@H]3CC[C@H](C(C)(C)O)CC3)cnc2n1` [Example 70, N-(trans-4-(2-Hydroxypropan-2-yl)cyclohexyl)-2-(methylthio)pyrido[2,3-d]pyrimidine-6-carboxamide], the IC50 was less than 10 nM.
For `C[C@@H]1CNC(=O)[C@H]1NC(=O)c1cnc2nc(N3CC[C@@H]3C)c(Cl)cc2c1` [Example 67, 6-Chloro-N-((3S,4R)-4-methyl-2-oxopyrrolidin-3-yl)-7-((S)-2-methylazetidin-1-yl)-1,8-naphthyridine-3-carboxamide] the value was less than 10 nM; for `C[C@]1(O)C[C@@H](NC(=O)c2cnc3cc(N4CCC4)ncc3c2)C1` [Example 15, 7-(Azetidin-1-yl)-N-((1s,3s)-3-hydroxy-3-methylcyclobutyl)-1,6-naphthyridine-3-carboxamide], 10 to 79.4 nM.
For `O=C(N[C@H]1CC[C@H](N2CC(F)(F)C2)CC1)c1cnc2nc(C3CC3)ccc2c1` [Example 54, 7-Cyclopropyl-N-(trans-4-(3,3-difluoroazetidin-1-yl)cyclohexyl)-1,8-naphthyridine-3-carboxamide] the value was 10 to 79.4 nM.
On to `C[C@]1(O)C[C@H](NC(=O)c2cnc3cc(C4CC4)ncc3c2)C1` [Example 41, 7-Cyclopropyl-N-((1r,3s)-3-hydroxy-3-methylcyclobutyl)-1,6-naphthyridine-3-carboxamide], for which the IC50 was 100 to 1000 nM.
Turning to `CC(C)(O)[C@H]1CC[C@H](NC(=O)c2cnc3nc(OCC(F)(F)F)ccc3c2)CC1` [Example 55, N-(trans-4-(2-Hydroxypropan-2-yl)cyclohexyl)-7-(2,2,2-trifluoroethoxy)-1,8-naphthyridine-3-carboxamide], the IC50 is 100 to 1000 nM.
The same measure for `O=C(N[C@H]1CC[C@@](O)(C(F)F)CC1)c1cnc2cc(C3CC3)ncc2c1` [Example 33, 7-Cyclopropyl-N-((1r,4r)-4-(difluoromethyl)-4-hydroxycyclohexyl)-1,6-naphthyridine-3-carboxamide]: 100 to 1000 nM.
For `CC(C)(O)[C@H]1CC[C@H](NC(=O)c2cnc3cc(C4CC4)ncc3c2)CC1` [Example 10, 7-Cyclopropyl-N-((trans)-4-(2-hydroxypropan-2-yl)cyclohexyl)-1,6-naphthyridine-3-carboxamide], the IC50 was 10 to 79.4 nM.
For `C[C@H]1CCN1c1nc2ncc(C(=O)NC3CC4(C3)CC(C(C)(C)O)C4)cc2cc1Cl` (stereo partly drawn) [Example 61, (S)-6-Chloro-N-(6-(2-hydroxypropan-2-yl)spiro[3.3]heptan-2-yl)-7-(2-methylazetidin-1-yl)-1,8-naphthyridine-3-carboxamide] the value was less than 10 nM; for `C[C@H]1CCN1c1cc2ncc(C(=O)NC3CCN(C(=O)C(C)(C)O)CC3)cc2cn1` [Example 24, (S)—N-(1-(2-Hydroxy-2-methylpropanoyl)piperidin-4-yl)-7-(2-methylazetidin-1-yl)-1,6-naphthyridine-3-carboxamide], 10 to 79.4 nM.
The same measure for `C[C@]1(O)C[C@@H](NC(=O)c2cnc3nc(C4CC4)ccc3c2)C1` [Example 45, 7-Cyclopropyl-N-((1s,3s)-3-hydroxy-3-methylcyclobutyl)-1,8-naphthyridine-3-carboxamide]: 100 to 1000 nM; for `O=C(N[C@H]1C[C@](O)(C(F)(F)F)C1)c1cnc2nc(C3CC3)ccc2c1` [Example 53, 7-cyclopropyl-N-((1s,3s)-3-hydroxy-3-(trifluoromethyl)cyclobutyl)-1,8-naphthyridine-3-carboxamide]: 100 to 1000 nM.
For `C[C@]1(O)CC[C@H](NC(=O)c2cnc3nc(C4CC4)c(Cl)cc3c2)CC1` [Example 74, 6-Chloro-7-cyclopropyl-N-((1r,4r)-4-hydroxy-4-methylcyclohexyl)-1,8-naphthyridine-3-carboxamide ethyl acetate solvate] the value was less than 10 nM; for `CC1CCN1c1ccc2cc(C(=O)N[C@H]3CC[C@H](C(C)(C)O)CC3)cnc2n1` (mixture of isomers) [Example 7, N-(trans-4-(2-Hydroxypropan-2-yl)cyclohexyl)-7-(2-methylazetidin-1-yl)-1,8-naphthyridine-3-carboxamide], 10 to 79.4 nM; for `C[C@@H]1CCN1c1cc2ncc(C(=O)N[C@H]3CC[C@H](C(C)(C)O)CC3)cc2cn1` [Example 12, N-(trans-4-(2-Hydroxypropan-2-yl)cyclohexyl)-7-((R)-2-methylazetidin-1-yl)-1,6-naphthyridine-3-carboxamide], 100 to 1000 nM.
Turning to `C[C@H]1CCN1c1nc2ncc(C(=O)N[C@H]3CC[C@H](C(C)(C)O)CC3)cc2cc1Cl` [Example 58, 6-Chloro-N-(trans-4-(2-hydroxypropan-2-yl)cyclohexyl)-7-((S)-2-methylazetidin-1-yl)-1,8-naphthyridine-3-carboxamide], the IC50 is less than 10 nM.
The same measure for `C[C@]1(O)C[C@@H](NC(=O)c2cnc3nc(C4CC4)c(Cl)cc3c2)C1` [Example 76, 6-Chloro-7-cyclopropyl-N-((1s,3s)-3-hydroxy-3-methylcyclobutyl)-1,8-naphthyridine-3-carboxamide]: less than 10 nM; for `C[C@H]1CCN1c1cc2ncc(C(=O)N[C@@H]3C(=O)NCC3(C)C)cc2cn1` [Example 78, N—((S)-4,4-Dimethyl-2-oxopyrrolidin-3-yl)-7-((S)-2-methylazetidin-1-yl)-1,6-naphthyridine-3-carboxamide]: 100 to 1000 nM.
